According to ChEMBL document CHEMBL1144704, “Phloroglucinols with prooxidant activity from Garcinia subelliptica” (J Nat Prod, 2008):
Active and inactive are the calls of the source. No cut-off for these calls is given here.

Assays:
Escherichia coli [1] = assay: Induction of Cu(2)-mediated pBR322 DNA cleavage assessed as conversion of supercoiled to relaxed open circle at 50 to 300 uM by agarose gel electrophoresis
Escherichia coli [2] = assay: Induction of Cu(2)-mediated pBR322 DNA cleavage assessed as conversion of supercoiled to relaxed open circle at 300 uM by agarose gel electrophoresis in presence of potassium iodide
Escherichia coli [3] = assay: Induction of Cu(2)-mediated pBR322 DNA cleavage assessed as conversion of supercoiled to relaxed open circle at 300 uM by agarose gel electrophoresis in presence of catalase
Escherichia coli [4] = assay: Induction of Cu(2)-mediated pBR322 DNA cleavage assessed as conversion of supercoiled to relaxed open circle at 300 uM by agarose gel electrophoresis in presence of superoxide dismutase

| Activity (Escherichia coli [1]) | Activity (Escherichia coli [2]) | Activity (Escherichia coli [3]) | Activity (Escherichia coli [4]) | SMILES |
| --- | --- | --- | --- | --- |
| inactive |  |  |  | C=C(C)CC[C@@H](C[C@@H]1C[C@]2(CC=C(C)C)C(=O)[C@@](C(=O)c3ccc(O)c(O)c3)(C(=O)C3=C2O[C@@H](C(C)(C)O)C3)C1(C)C)C(=C)C |
|  | Active | Active | Active | C=C(C)CC[C@@H](C[C@H]1C[C@@]2(CC=C(C)C)C(=O)C(CC=C(C)C)=C(O)[C@@](C(=O)c3ccc(O)c(O)c3)(C2=O)C1(C)C)C(=C)C (stereo in doubt; 2) |
| Active | Active | Active | Active | CC(C)=CC[C@]12C[C@H](O)C(C)(C)O[C@@H](C(C)(C)O)C[C@@](O)(C(=O)C(C(=O)C(C)C)=C1O)C2=O |
|  | Active | Active | Active | C=C(C)CC[C@@H](C[C@H]1C[C@@]2(CC=C(C)C)C(=O)C(CC=C(C)C)=C(O)[C@@](C(=O)c3ccc(O)c(O)c3)(C2=O)C1(C)C)C(=C)C (stereo in doubt; 2a) |
